The subject of series [1] is Carrageenin-Induced Paw Edema. As to the kind of experiment: Carrageenin-induced paw edema in rats (inhibitory activity). The format is in vivo, male rats of Donryu strain. The note with it: Rattus norvegicus, read-out: Inhibitory effect (carrageenin-induced paw edema). The method, then: (1) Carrageenin-induced paw edema
This inhibitory activity was tested according to the method of C. A. Winter et al. [Proceedings of the Society for Experimental Biology and Medicine, vol.
After one hour, 0.1 ml of a 1% carrageenin was injected into the subplantar region of the left hind paw. Three hours after carrageenin injection, the paw volume was measured plethysmographically and the percent swelling was determined from the volume before injection and the inhibitory percentage was calculated according to the following equation: [formula]
(Carrageenan injected into the paw causes an acute inflammation.)

For the next series, the system named is Adjuvant Arthritis. The experiment in a line: Adjuvant-induced arthritis in rats (inhibitory activity). The settings on record: for Inhibitory effect (adjuvant arthritis, Table 3): seven continuous days; for inhibition in vivo at 3 mg/kg / inhibition in vivo at 10 mg/kg: Rattus norvegicus, read-out: Inhibitory effect (adjuvant arthritis, Table 4). Format: in vivo, male rats of Westar-Lewis strain. The method, then: (2) Adjuvant-induced arthritis
This inhibitory activity was tested according to the method of E. M. Glenn [American Journal of Veterinary Research, vol. 27, p. 339 (1966)].
To male rats of Westar-Lewis strain (body weight: 190-230 g, 5 rats per group) was intradermally injected 0.1 ml of a suspension of heat-killed Mycobacterium tuberculosis in liquid paraffin at a concentration of 6 mg/ml as the adjuvant into the root of tail. Eighteen days after the adjuvant injection, the rats were classified based on the volume of both hind paws, and then a suspension of the test compound in 0.5% (w/v) aqueous carboxymethylcellulose solution was orally administered to the classified rats in a proportion of 1 ml/100 g of body weight once a day for seven continuous days (see Table 3) or four continuous days (see Table 4). On the day following the last administration, the volume of both hind paws was measured, and in the same manner as in (1) above, the inhibitory effect was determined. Incidentally, the result is shown in Tables 3 and 4 in terms of the inhibitory effect indicated below based on inhibition (x%).

Series [2] can be described thus: Ulcerogenic effect in rats. On the set-up: species or system male rats of Wister strain. The settings on record: rat, in vivo. The protocol:
To male rats of Wister strain (body weight: 180-230 g, 7 to 8 rats per group) which had been fasted for 24 hours with free access to water was orally administered a test compound suspended in 0.5% (w/v) aqueous carboxymethylcellulose solution in a proportion of 1 ml/100 g of body weight. The rats were allowed to stand under abstinence from food and water for 24 hours, and thereafter, sacrificed by dislocation of cervical vertebrae, after which the stomach was removed and fixed in 1% (v/v) formaline solution for 30 minutes. This stomach was split along the greater curvature and the length (mm) of the erosion and ulcer formed on the gastric mucosa was measured by a stereomicroscope, and the total sum of the lengths (lmm) was determined, from which ulcerogenic index was assessed based on the following arbitrary scale:
Subsequently, UD50 (mg/kg) which is the dose of the test compound which induces ulcerogenic index 5 was determined on each test compound.
*Rats were allowed to stand for 5 hours under abstinence from food and […]

The next series concerns mice. As to the kind of experiment: Oral acute toxicity in mice. Format: in vivo, ICR strain male mice. The note with it: for behavioural changes: mouse, in vivo, po, 500 mg/kg; for death cases: oral, dose of 500 mg/kg, observed over one week. The protocol:
(§1) ICR strain male mice (body weight: 20-25 g, […], 3 mice per group) were tested for oral acute toxicity. A test compound suspended in 0.5% (w/v) aqueous carboxymethylcellulose solution was orally administered to the mice in a proportion of 0.2 ml/10 g of body weight. After the administration, general symptom was observed over one week.

Series [3] can be described thus: Oral acute toxicity in mice. The format is in vivo, ICR strain male mice. The note with it: mouse, in vivo; oral, mice. The method, then:
as §1

[4] abbreviates: 10 mg/kg oral, 1 h before carrageenin, paw volume 3 h after.
The mark [5] stands for this setting: 3 mg/kg oral once a day, four continuous days.
Where [6] appears, read: 10 mg/kg oral once a day, four continuous days.

Like-named read-outs stand apart in the source and are kept apart here.

On to `CS(=O)(=O)Nc1cc2occc(=O)c2cc1Oc1ccccc1` [Compound 1, 7-methylsulfonylamino-6-phenoxy4H-1-benzopyran-4-one], for which, in series [1] (setting [4]), the inhibition in vivo at 10 mg/kg fell in the range of 30 to 40%. Moreover, the “Inhibitory effect (adjuvant arthritis, Table 3)” value (“Inhibitory effect” below) in the series with Adjuvant Arthritis (10 mg/kg oral once a day) is recorded as “+++ (30 ≤ × < 40)”. Further, the TD50 at 5 h in series [2] (po) was above 300 mg/kg. Besides, in the series on mice, the behavioural changes entry is listed as “no behavioural changes were observed” and the death cases entry is “no death case was found”.
Take `CSc1coc2cc(NS(C)(=O)=O)c(Oc3ccccc3)cc2c1=O` [Compound 4, 7-methylsulfonylamino-3-methylthio-6-phenoxy-4H-1-benzopyran-4-one]: the inhibition in vivo at 10 mg/kg in series [1] (setting [4]) lay in the range of 20 to 30%. The inhibition in vivo at 3 mg/kg in the series with Adjuvant Arthritis (setting [5]) lay in the range of 20 to 30%.
Take `Cc1cc(=O)c2cc(Oc3ccccc3)c(NS(C)(=O)=O)cc2o1` [Compound 9]: the inhibition in vivo at 10 mg/kg in series [1] (setting [4]) was 20 to 30%. Moreover, in the series on Adjuvant Arthritis (10 mg/kg oral once a day), the “Inhibitory effect” value is recorded as “++++ (× ≥ 40)”.
Turning to `CS(=O)(=O)Nc1cc2occc(=O)c2cc1Nc1ccccc1` [Compound 12], the inhibition in vivo at 10 mg/kg in series [1] (setting [4]) lay within 30 to 40%. For the same compound, the inhibition in vivo at 3 mg/kg with Adjuvant Arthritis (setting [5]) lay within 30 to 40%.
`CS(=O)(=O)Nc1cc2occ(NC=O)c(=O)c2cc1Oc1ccccc1F` [Compound 34]: the inhibition in vivo at 10 mg/kg in series [1] (setting [4]) is above 40%. The inhibition in vivo at 3 mg/kg in the series with Adjuvant Arthritis (setting [5]) lay within 30 to 40%. The TD50 at 24 h in series [2] (po) was above 500 mg/kg. Besides, in the series on mice, the behavioural changes result is recorded as “no behavioural changes were observed” and the death cases result was “no death case was found”.
As for `CS(=O)(=O)Nc1cc2occ(NC=O)c(=O)c2cc1Oc1ccc(F)cc1F` [Compound 39], the inhibition in vivo at 10 mg/kg in series [1] (setting [4]) is above 40%. In the series on Adjuvant Arthritis (setting [5]), the inhibition in vivo at 3 mg/kg lay within 20 to 30%. This compound gave a TD50 at 24 h in series [2] (po) above 500 mg/kg. In addition, in the series on mice, the behavioural changes entry is reported as “no behavioural changes were observed” and the death cases entry was “no death case was found”.
In the case of `O=CNc1coc2cc(NS(=O)(=O)CCl)c(Oc3ccccc3)cc2c1=O` [Compound 40], the inhibition in vivo at 10 mg/kg in series [1] (setting [4]) was above 40%. The inhibition in vivo at 3 mg/kg with Adjuvant Arthritis (setting [5]) fell in the range of 20 to 30%.
On to `Cc1ccccc1Oc1cc2c(=O)c(NC=O)coc2cc1NS(C)(=O)=O` [Compound 46], for which, in series [1] (setting [4]), the inhibition in vivo at 10 mg/kg was above 40%. For the same compound, the inhibition in vivo at 3 mg/kg with Adjuvant Arthritis (setting [5]) was in the range of 20 to 30%. This compound also yielded a TD50 at 24 h in series [2] (po) above 500 mg/kg. Besides, in the series on mice, the behavioural changes entry is given as “no behavioural changes were observed” and the death cases entry is given as “no death case was found”.
As for `Cc1oc2cc(NS(C)(=O)=O)c(Oc3ccccc3)cc2c(=O)c1C(N)=O` [Compound 61], the inhibition in vivo at 10 mg/kg in series [1] (setting [4]) is 15 to 20%; in the series with Adjuvant Arthritis (setting [6]) it was 30 to 40%.
Regarding `CS(=O)(=O)Nc1cc2occ(NC=O)c(=O)c2cc1Sc1ccccc1` [Compound 88], the inhibition in vivo at 10 mg/kg in series [1] (setting [4]) fell in the range of 30 to 40%; in the series on Adjuvant Arthritis (setting [6]), 20 to 30%.
As for `CS(=O)(=O)Nc1cc2occc(=O)c2cc1Oc1ccc(F)cc1F` [Compound 94, 6-(2,4-difluorophenoxy)-7-methylsulfonylamino-4H-1-benzopyran-4-one], the inhibition in vivo at 10 mg/kg in series [1] (setting [4]) lay within 30 to 40%. In the series with Adjuvant Arthritis (10 mg/kg oral once a day), the “Inhibitory effect” value was “++++ (× ≥ 40)”. Moreover, the TD50 at 5 h in series [2] (po) is above 300 mg/kg. In addition, in the series on mice, the behavioural changes result is listed as “no behavioural changes were observed” and the death cases result was “no death case was found”.
For the compound `CC(=O)N(c1cc2occc(=O)c2cc1Oc1ccccc1)S(C)(=O)=O` [Compound 96], the inhibition in vivo at 10 mg/kg in series [1] (setting [4]) was in the range of 30 to 40%. The “Inhibitory effect” value in the series with Adjuvant Arthritis (10 mg/kg oral once a day) is “++++ (× ≥ 40)”.
Take `CS(=O)(=O)Nc1cc2occ(NC=O)c(=O)c2cc1Oc1ccccc1` [Compound 99]: the inhibition in vivo at 10 mg/kg in series [1] (setting [4]) was above 40%. The inhibition in vivo at 3 mg/kg with Adjuvant Arthritis (setting [5]) was in the range of 20 to 30%. The same compound gave a TD50 at 24 h in series [2] (po) above 500 mg/kg. Moreover, in the series with mice, the behavioural changes result is “no behavioural changes were observed” and the death cases entry is on record as “no death case was found”.
Turning to `CN(C=O)c1coc2cc(NS(C)(=O)=O)c(Oc3ccccc3)cc2c1=O` [Compound 100], the inhibition in vivo at 10 mg/kg was above 40% in series [1] (setting [4]) and 20 to 30% with Adjuvant Arthritis (setting [6]).
Taken in the same sequence, the figures for `CNc1coc2cc(NS(C)(=O)=O)c(Oc3ccccc3)cc2c1=O` [Compound 101] were 30 to 40% and 20 to 30%.
As for `CS(=O)(=O)Nc1cc2occ(C(N)=O)c(=O)c2cc1Oc1ccccc1` [Compound 122], the inhibition in vivo at 10 mg/kg in series [1] (setting [4]) lay in the range of 20 to 30%. Also, the inhibition in vivo at 3 mg/kg in the series with Adjuvant Arthritis (setting [5]) was in the range of 20 to 30%.
As a reminder, the LD50 is the dose expected to kill half of the subjects tested. High values mean a less toxic substance, low ones a more toxic substance. On to `COc1ccc2c(c1)c(CC(=O)O)c(C)n2C(=O)c1ccc(Cl)cc1` [IM, indomethacin, reference compound], for which the inhibition in vivo at 10 mg/kg in series [1] (po, 3 h) was above 40%. Besides, the “Inhibitory effect” value with Adjuvant Arthritis (1 mg/kg oral once a day) is “+++ (30 ≤ × < 40)”. In addition, the inhibition in vivo at 3 mg/kg in the series with Adjuvant Arthritis (po) lay within 30 to 40%. For the same compound, the TD50 at 24 h in series [2] (oral, 24 hours under abstinence from food and water, read-out: UD50 (dose which induces ulcerogenic index 5)) stood at 4.3 mg/kg. The same compound yielded an LD50 at 168 h in series [3] of 25 mg/kg.
